Measured values from patent US20170354655A1, “TLR INHIBITOR AND BRUTON'S TYROSINE KINASE INHIBITOR COMBINATIONS” (Pharmacyclics LLC, priority 2014, published 2017).

Tests used:
TMD8 cells = experiment: Combined drug treatment with 5Z-7-Oxozeaenol and ibrutinib, CellTiter-Glo cell viability in TMD8 cell line; format: cell-based
Method: A 40 μL aliquot of CellTiter-Glo® reagent was added directly into each well of the 96-W plate. The plate was then shaken on a Shaker (Labsystem Wellmix) at speed 5 for 10-20 min at room temperature. Next, about 100 μL of the mixed medium was transferred to a white, non-transparent, flat bottom 96-W plate for assaying. A Flexstation 3 luminometer was used for detecting and measuring the luminescent signals. Measurements were taken at room temperature.
The luminescent measurements were subsequently processed and analyzed using CalcuSyn (CI) and Chalice Analyzer (synergy score). CalcuSyn performs the multiple drug dose-effect calculations using the Median Effect methods described by T-C Chou and P. Talalay in “Analysis of combined drug effects: a new look at a very old problem,” Trends Pharmacol. Sci. 4:450-454 (1983). In general, the resulting combination index (CI) obtained from the Chou-Talalay method defines quantitatively for additive effect (CI=1), synergism (CI<1), and antagonism (CI>1) in drug combinations. Chalice Analyzer utilizes the method described in Lehar et al. “Synergistic drug combinations improve therapeutic selectivity,” Nat. Biotechnol. 27(7):659-666 (2009). Synergy scores is higher than 1 indicate synergy between two compounds, with higher synergy scores indicating better synergy.
200 μl of TMD8 wt cells (1.0×10^4 cells) at 5.0×10^4 cells/ml was plated into each well of a 96-well plate. The cells were grown in RPMI-10P medium.
The TAK1 inhibitor used for this experiment was 5Z-7-oxozeaenol. […] The stock solution for chloroquine diphosphate was prepared at 20 mM concentration. The CellTiter-Glo® assay follow the protocols of Example 1.

[1] = tested on: patients who have the activated B-cell like (ABC) subtype of DLBCL; conditions: cited from earlier work

With `C=CC(=O)N1CCC[C@@H](n2nc(-c3ccc(Oc4ccccc4)cc3)c3c(N)ncnc32)C1` [ibrutinib, 1-((R)-3-(4-amino-3-(4-phenoxyphenyl)-1H-pyrazolo[3,4-d]pyrimidin-1-yl)piperidin-1-yl)prop-2-en-1-one] the “luminescent signal (CellTiter-Glo)” value (TMD8 cells; 5Z-7-OXO 0 nM, ibrutinib 0.00026 nM) was 268264, the “luminescent signal (CellTiter-Glo)” value (TMD8 cells; 5Z-7-OXO 0 nM, ibrutinib 0.00128 nM) was 245879 and the “luminescent signal (CellTiter-Glo)” value (TMD8 cells; 5Z-7-OXO 0 nM, ibrutinib 0.0064 nM) was 240905. For the same compound, the “luminescent signal (CellTiter-Glo)” value (TMD8 cells; 5Z-7-OXO 0 nM, ibrutinib 0.032 nM) was 249480, the “luminescent signal (CellTiter-Glo)” value (TMD8 cells; 5Z-7-OXO 0 nM, ibrutinib 0.16 nM) was 190532 and the “luminescent signal (CellTiter-Glo)” value (TMD8 cells; 5Z-7-OXO 0 nM, ibrutinib 0.8 nM) was 126175. For the same compound, the “luminescent signal (CellTiter-Glo)” value (TMD8 cells; 5Z-7-OXO 0 nM, ibrutinib 4 nM) was 96203.8, the “luminescent signal (CellTiter-Glo)” value (TMD8 cells; 5Z-7-OXO 0 nM, ibrutinib 20 nM) was 90633.1 and the “luminescent signal (CellTiter-Glo)” value (TMD8 cells; 5Z-7-OXO 0 nM, ibrutinib 100 nM) was 94612.5. For the same compound, the overall response rate [1] was 41% and the overall survival [1] was 9.7 month.

With `COc1cc(O)c2c(c1)/C=C/C[C@H](O)[C@H](O)C(=O)/C=C\C[C@H](C)OC2=O` [5Z-7-Oxozeaenol, 5Z-7-oxozeaenol] the “luminescent signal (CellTiter-Glo)” value (TMD8 cells; 5Z-7-OXO 1 nM, ibrutinib 0 nM) was 259932, the “luminescent signal (CellTiter-Glo)” value (TMD8 cells; 5Z-7-OXO 1 nM, ibrutinib 0.00026 nM) was 249856 and the “luminescent signal (CellTiter-Glo)” value (TMD8 cells; 5Z-7-OXO 1 nM, ibrutinib 0.00128 nM) was 259290. The “luminescent signal (CellTiter-Glo)” value (TMD8 cells; 5Z-7-OXO 1 nM, ibrutinib 0.0064 nM) was 236187, the “luminescent signal (CellTiter-Glo)” value (TMD8 cells; 5Z-7-OXO 1 nM, ibrutinib 0.032 nM) was 249545 and the “luminescent signal (CellTiter-Glo)” value (TMD8 cells; 5Z-7-OXO 1 nM, ibrutinib 0.16 nM) was 181569. The “luminescent signal (CellTiter-Glo)” value (TMD8 cells; 5Z-7-OXO 1 nM, ibrutinib 0.8 nM) was 127363, the “luminescent signal (CellTiter-Glo)” value (TMD8 cells; 5Z-7-OXO 1 nM, ibrutinib 4 nM) was 98378.9 and the “luminescent signal (CellTiter-Glo)” value (TMD8 cells; 5Z-7-OXO 1 nM, ibrutinib 20 nM) was 98536.7. The “luminescent signal (CellTiter-Glo)” value (TMD8 cells; 5Z-7-OXO 1 nM, ibrutinib 100 nM) was 78834.1, the “luminescent signal (CellTiter-Glo)” value (TMD8 cells; 5Z-7-OXO 10 nM, ibrutinib 0 nM) was 277804 and the “luminescent signal (CellTiter-Glo)” value (TMD8 cells; 5Z-7-OXO 10 nM, ibrutinib 0.00026 nM) was 260616. The “luminescent signal (CellTiter-Glo)” value (TMD8 cells; 5Z-7-OXO 10 nM, ibrutinib 0.00128 nM) was 241442, the “luminescent signal (CellTiter-Glo)” value (TMD8 cells; 5Z-7-OXO 10 nM, ibrutinib 0.0064 nM) was 223023 and the “luminescent signal (CellTiter-Glo)” value (TMD8 cells; 5Z-7-OXO 10 nM, ibrutinib 0.032 nM) was 222768. For the same compound, the “luminescent signal (CellTiter-Glo)” value (TMD8 cells; 5Z-7-OXO 10 nM, ibrutinib 0.16 nM) was 175048, the “luminescent signal (CellTiter-Glo)” value (TMD8 cells; 5Z-7-OXO 10 nM, ibrutinib 0.8 nM) was 120925 and the “luminescent signal (CellTiter-Glo)” value (TMD8 cells; 5Z-7-OXO 10 nM, ibrutinib 4 nM) was 96219.6. For the same compound, the “luminescent signal (CellTiter-Glo)” value (TMD8 cells; 5Z-7-OXO 10 nM, ibrutinib 20 nM) was 86196, the “luminescent signal (CellTiter-Glo)” value (TMD8 cells; 5Z-7-OXO 10 nM, ibrutinib 100 nM) was 86511.6 and the “luminescent signal (CellTiter-Glo)” value (TMD8 cells; 5Z-7-OXO 100 nM, ibrutinib 0 nM) was 167090. For the same compound, the “luminescent signal (CellTiter-Glo)” value (TMD8 cells; 5Z-7-OXO 100 nM, ibrutinib 0.00026 nM) was 168173, the “luminescent signal (CellTiter-Glo)” value (TMD8 cells; 5Z-7-OXO 100 nM, ibrutinib 0.00128 nM) was 147600 and the “luminescent signal (CellTiter-Glo)” value (TMD8 cells; 5Z-7-OXO 100 nM, ibrutinib 0.0064 nM) was 151829. For the same compound, the “luminescent signal (CellTiter-Glo)” value (TMD8 cells; 5Z-7-OXO 100 nM, ibrutinib 0.032 nM) was 130054, the “luminescent signal (CellTiter-Glo)” value (TMD8 cells; 5Z-7-OXO 100 nM, ibrutinib 0.16 nM) was 98728.8 and the “luminescent signal (CellTiter-Glo)” value (TMD8 cells; 5Z-7-OXO 100 nM, ibrutinib 0.8 nM) was 54512.9. For the same compound, the “luminescent signal (CellTiter-Glo)” value (TMD8 cells; 5Z-7-OXO 100 nM, ibrutinib 4 nM) was 42472, the “luminescent signal (CellTiter-Glo)” value (TMD8 cells; 5Z-7-OXO 100 nM, ibrutinib 20 nM) was 40678.2 and the “luminescent signal (CellTiter-Glo)” value (TMD8 cells; 5Z-7-OXO 100 nM, ibrutinib 100 nM) was 34016. For the same compound, the “luminescent signal (CellTiter-Glo)” value (TMD8 cells; 5Z-7-OXO 1000 nM, ibrutinib 0 nM) was 27259.1, the “luminescent signal (CellTiter-Glo)” value (TMD8 cells; 5Z-7-OXO 1000 nM, ibrutinib 0.00026 nM) was 29868.2 and the “luminescent signal (CellTiter-Glo)” value (TMD8 cells; 5Z-7-OXO 1000 nM, ibrutinib 0.00128 nM) was 25315.4. For the same compound, the “luminescent signal (CellTiter-Glo)” value (TMD8 cells; 5Z-7-OXO 1000 nM, ibrutinib 0.0064 nM) was 23976.6, the “luminescent signal (CellTiter-Glo)” value (TMD8 cells; 5Z-7-OXO 1000 nM, ibrutinib 0.032 nM) was 20081.4 and the “luminescent signal (CellTiter-Glo)” value (TMD8 cells; 5Z-7-OXO 1000 nM, ibrutinib 0.16 nM) was 15015.6. The “luminescent signal (CellTiter-Glo)” value (TMD8 cells; 5Z-7-OXO 1000 nM, ibrutinib 0.8 nM) was 12627.5, the “luminescent signal (CellTiter-Glo)” value (TMD8 cells; 5Z-7-OXO 1000 nM, ibrutinib 4 nM) was 13032.5 and the “luminescent signal (CellTiter-Glo)” value (TMD8 cells; 5Z-7-OXO 1000 nM, ibrutinib 20 nM) was 13048.3. For the same compound, the “luminescent signal (CellTiter-Glo)” value (TMD8 cells; 5Z-7-OXO 1000 nM, ibrutinib 100 nM) was 12982.5, the “luminescent signal (CellTiter-Glo)” value (TMD8 cells; 5Z-7-OXO 10000 nM, ibrutinib 0 nM) was 4563.35 and the “luminescent signal (CellTiter-Glo)” value (TMD8 cells; 5Z-7-OXO 10000 nM, ibrutinib 0.00026 nM) was 4729.05. The “luminescent signal (CellTiter-Glo)” value (TMD8 cells; 5Z-7-OXO 10000 nM, ibrutinib 0.00128 nM) was 4731.68, the “luminescent signal (CellTiter-Glo)” value (TMD8 cells; 5Z-7-OXO 10000 nM, ibrutinib 0.0064 nM) was 4700.12 and the “luminescent signal (CellTiter-Glo)” value (TMD8 cells; 5Z-7-OXO 10000 nM, ibrutinib 0.032 nM) was 5299.8. For the same compound, the “luminescent signal (CellTiter-Glo)” value (TMD8 cells; 5Z-7-OXO 10000 nM, ibrutinib 0.16 nM) was 5307.69, the “luminescent signal (CellTiter-Glo)” value (TMD8 cells; 5Z-7-OXO 10000 nM, ibrutinib 0.8 nM) was 5441.83 and the “luminescent signal (CellTiter-Glo)” value (TMD8 cells; 5Z-7-OXO 10000 nM, ibrutinib 4 nM) was 5749.55. For the same compound, the “luminescent signal (CellTiter-Glo)” value (TMD8 cells; 5Z-7-OXO 10000 nM, ibrutinib 20 nM) was 5957.34, the “luminescent signal (CellTiter-Glo)” value (TMD8 cells; 5Z-7-OXO 10000 nM, ibrutinib 100 nM) was 6244.03 and the “CI value for the 5Z-7-Oxozeaenol/ibrutinib combination” value (TMD8 cells; TMD8 cells) was 0.17. For the same compound, the “synergy score for the 5Z-7-Oxozeaenol/ibrutinib combination” value (TMD8 cells; TMD8 cells) was 4.63 and the “synergy with ibrutinib (in words)” value (TMD8 cells; TMD8 cells) was “Synergy was observed”.
